In the supplement of paper PMC10307832:

Experiments:
Assay in all cases: relative viability (nuclei count vs DMSO), 5 days (fraction); higher = more cells survive
Bortezomib + Palbociclib = compound: CC(C)C[C@H](NC(=O)[C@H](Cc1ccccc1)NC(=O)c1cnccn1)B(O)O [Bortezomib] + CC(=O)c1c(C)c2cnc(Nc3ccc(N4CCNCC4)cn3)nc2n(C2CCCC2)c1=O [Palbociclib] (partner 0.5 µM)
Summary of the method: (§1)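 Lung cancer cell lines were seeded in 1536-well plates and dosed by pin tool the next day, with either a single drug or a fixed anchor-drug dose combined with five library-drug doses (not always all listed) spaced in √10 steps. Five days later, one step fixed the cells and stained their nuclei (final 0.05% Triton X-100, 1% formaldehyde, 1 ug/ml Hoechst), and nuclei were counted on 4× images. Relative viability is the nuclei count in treated wells divided by the count in vehicle wells, and each value is the median of duplicate plates.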

[1] = compound: CC1=CC(=NN1)NC2=CC(=NC(=N2)/C=C/C3=CC=CC=C3)N4CCN(CC4)C + CC(=O)Nc1cccc(-n2c(=O)n(C3CC3)c(=O)c3c(Nc4ccc(I)cc4F)n(C)c(=O)c(C)c32)c1 [Trametinib] (partner 0.02 µM)
Summary of the method: as §1

Bortezomib + Linsitinib = compound: CC(C)C[C@H](NC(=O)[C@H](Cc1ccccc1)NC(=O)c1cnccn1)B(O)O [Bortezomib] + C[C@]1(O)C[C@@H](c2nc(-c3ccc4ccc(-c5ccccc5)nc4c3)c3c(N)nccn32)C1 [Linsitinib] (partner 1 µM)
Summary of the method: as §1

Obatoclax + Foretinib = compound: COC1=CC(c2cc3ccccc3[nH]2)=N/C1=C\c1[nH]c(C)cc1C [Obatoclax] + COc1cc2c(Oc3ccc(NC(=O)C4(C(=O)Nc5ccc(F)cc5)CC4)cc3F)ccnc2cc1OCCCN1CCOCC1 [Foretinib] (partner 0.25 µM)
Summary of the method: as §1

Question: With NCI-H650 as the cell line, how does the relative viability (Bortezomib + Palbociclib; first compound 0.0002 µM) read?
Answer: The relative viability was 0.335.

Question: What about the relative viability (Bortezomib + Palbociclib; first compound 0.000632 µM) of the same cell line?
Answer: The relative viability was 0.27.

Question: And the relative viability (Bortezomib + Palbociclib; first compound 0.002 µM)?
Answer: Its relative viability is 0.31.

Question: What about the relative viability (Bortezomib + Palbociclib; first compound 0.006325 µM) of the same cell line?
Answer: The relative viability was 0.243.

Question: What about the relative viability (Bortezomib + Palbociclib; first compound 0.02 µM) of the same cell line?
Answer: Its relative viability is 0.149.

Question: And the relative viability ([1]; first compound 0.08 µM)?
Answer: Its relative viability is 0.891.

Question: And the relative viability ([1]; first compound 0.253 µM)?
Answer: The relative viability was 0.706.

Question: And the relative viability ([1]; first compound 0.8 µM)?
Answer: Its relative viability is 0.907.

Question: And the relative viability ([1]; first compound 2.53 µM)?
Answer: Its relative viability is 0.627.

Question: What about the relative viability ([1]; first compound 8 µM) of the same cell line?
Answer: Its relative viability is 0.166.

Question: What about the relative viability (Bortezomib + Linsitinib; first compound 0.000632 µM) of the same cell line?
Answer: The relative viability was 0.806.

Question: And the relative viability (Bortezomib + Linsitinib; first compound 0.002 µM)?
Answer: The relative viability was 0.811.

Question: And the relative viability (Bortezomib + Linsitinib; first compound 0.006325 µM)?
Answer: Its relative viability is 0.338.

Question: What about the relative viability (Bortezomib + Linsitinib; first compound 0.02 µM) of the same cell line?
Answer: The relative viability was 0.234.

Question: And the relative viability (Obatoclax + Foretinib; first compound 0.01 µM)?
Answer: Its relative viability is 1.01.

Question: And the relative viability (Obatoclax + Foretinib; first compound 0.03162 µM)?
Answer: Its relative viability is 0.986.

Question: What about the relative viability (Obatoclax + Foretinib; first compound 0.3162 µM) of the same cell line?
Answer: The relative viability was 0.717.

Question: And the relative viability (Obatoclax + Foretinib; first compound 1 µM)?
Answer: Its relative viability is 0.38.
